Converted amounts (≈) assume the structure as drawn.
Experiments:
Type in all cases: cell-based
[1] = test system: H. influenzae ATCC 43095; assay: In vitro antibacterial activity, MIC by microbroth dilution method (CLSI method), test bacteria symbol A; conditions: Haemophilus influenzae, ATCC43095, read-out: MIC (minimum inhibitory concentration), test bacteria A
Procedure: (§1) In vitro antibacterial activities of the compounds of the present invention against various test bacteria were measured according to the microbroth dilution method (CLSI method). As Comparative agent 1, clarithromycin was used, and the results for typical exemplary compounds are shown as MIC values (minimum inhibitory concentration, μg/ml) in Table 19.

[2] = test system: S. pneumoniae ATCC 49619; assay: In vitro antibacterial activity, MIC by microbroth dilution method (CLSI method), test bacteria symbol B; conditions: Streptococcus pneumoniae, ATCC49619, read-out: MIC (minimum inhibitory concentration), test bacteria B
Procedure: as §1

[3] = test system: S. pneumoniae ATCC 700904; assay: In vitro antibacterial activity, MIC by microbroth dilution method (CLSI method), test bacteria symbol C; conditions: Streptococcus pneumoniae, ATCC700904, read-out: MIC (minimum inhibitory concentration), test bacteria C
Procedure: as §1

MIC [1] [µg/mL]	MIC [2] [µg/mL]	MIC [3] [µg/mL]	SMILES
4 (≈ 5.35 µM)	0.03 (≈ 0.0401 µM)	> 128	CC[C@H]1OC(=O)[C@H](C)[C@@H](O[C@H]2C[C@@](C)(OC)[C@@H](O)[C@H](C)O2)[C@H](C)[C@@H](O[C@@H]2O[C@H](C)C[C@H](N(C)C)[C@H]2O)[C@](C)(OC)C[C@@H](C)C(=O)[C@H](C)[C@@H](O)[C@]1(C)O [Comparative agent 1, clarithromycin, reference compound]
16 (≈ 21.6 µM)	8 (≈ 10.8 µM)	> 16	CO[C@@]1(C)C[C@@H](C)[C@H](O)[C@H](C)N2C[C@@H](COc3cccc(C(C)(C)C)c3)[C@H](C2)OC(=O)C(C)(Cl)C(=O)[C@H](C)[C@H]1O[C@@H]1O[C@H](C)C[C@H](N(C)C)[C@H]1O (stereo partly drawn) [Example522]
4 (≈ 4.86 µM)	0.12 (≈ 0.146 µM)	> 128	CO[C@]1(C)C[C@H](O[C@H]2[C@H](C)[C@@H](O[C@@H]3O[C@H](C)C[C@H](N(C)C)[C@H]3O)[C@@](C)(OC)C[C@@H](C)[C@H](O)[C@H](C)N3C[C@@H](COCc4ccccc4)[C@H](C3)OC(=O)[C@@H]2C)O[C@@H](C)[C@@H]1O [Example523]
0.5 (≈ 0.697 µM)	0.25 (≈ 0.349 µM)	> 128	CO[C@]1(C)C[C@H](O[C@H]2[C@H](C)[C@@H](O[C@@H]3O[C@H](C)C[C@H](N(C)C)[C@H]3O)[C@@](C)(OC)C[C@@H](C)[C@H](O)[C@H](C)N3CCC[C@@H](C3)OC(=O)[C@@H]2C)O[C@@H](C)[C@@H]1O [Example525]

Source: US8293715B2, “10a-Azalide compound crosslinked at 10a- and 12-positions” (Taisho Pharmaceutical Co., Ltd., priority 2007, dated 2012)
